Data as given in PubChem BioAssay (NCI).
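Cells were grown in 96-well plates and exposed to each compound for 48 hours at five concentrations; endpoints were interpolated linearly between bracketing concentrations, or set to the highest concentration if not reached. The concentration for 50% growth inhibition is given as GI50. TGI is the concentration that stops growth completely.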

Legend:
Assay in all cases: DTP human tumour cell line panel, 48 h
[1] = test system: HOP-92 NSCLC
[2] = test system: OVCAR-5 ovarian
[3] = test system: SK-MEL-28 melanoma
[4] = test system: SK-MEL-2 melanoma
[5] = test system: EKVX NSCLC
[6] = test system: BT-549 breast
[7] = test system: HCC-2998 colon
[8] = test system: RXF 393 renal
[9] = test system: PC-3 prostate
[10] = test system: LOX IMVI melanoma

SMILES	GI50 [1]	TGI [1]	GI50 [2]	TGI [2]	GI50 [3]	TGI [3]	GI50 [4]	TGI [4]	GI50 [5]	TGI [5]	GI50 [6]	TGI [6]	GI50 [7]	TGI [7]	GI50 [8]	TGI [8]	GI50 [9]	TGI [9]	TGI [10]	GI50 [10]
N=C1C(c2nc(-c3ccc(Br)cc3)cs2)=C(O)CN1CC1CCCO1 (stereo unspecified)	> 100 µM	> 100 µM	> 100 µM	> 100 µM	> 100 µM	> 100 µM	> 100 µM	> 100 µM	> 100 µM	> 100 µM	> 100 µM	> 100 µM	> 100 µM	> 100 µM	> 100 µM	> 100 µM	> 100 µM	> 100 µM	–	–
S=c1[nH]nc(SCc2ccccc2Cl)c2[nH]cnc12	–	> 100 µM	–	> 100 µM	–	> 100 µM	–	> 100 µM	–	> 100 µM	–	> 100 µM	–	–	–	> 100 µM	–	> 100 µM	> 100 µM	–
C[C@H]1CCC/C=C/[C@@H]2C[C@H](O)C[C@H]2[C@H](O)[C@@H](SC2OC(CO)C(O)C(O)C2O)CC(=O)O1 (stereo partly specified)	> 100 µM	> 100 µM	48 µM	> 100 µM	74.3 µM	> 100 µM	> 100 µM	> 100 µM	> 100 µM	> 100 µM	–	–	> 100 µM	> 100 µM	20 µM	55.8 µM	> 100 µM	> 100 µM	> 100 µM	35.7 µM
O=C(Nc1ccccc1C(=O)Nc1nccs1)c1ccccc1	–	–	–	> 100 µM	–	> 100 µM	–	> 100 µM	–	> 100 µM	–	> 100 µM	–	> 100 µM	–	–	–	> 100 µM	> 100 µM	–
Cc1[nH]n(-c2ccccc2)c(=O)c1C(=O)c1ccccc1	> 10.6 µM	> 25 µM	> 25 µM	> 25 µM	> 25 µM	> 25 µM	> 25 µM	> 25 µM	–	–	> 25 µM	> 25 µM	> 25 µM	> 25 µM	> 25 µM	> 25 µM	19.7 µM	> 25 µM	> 25 µM	> 25 µM
CC(C)=CCC/C(C)=C/[C@H]1OC(=O)CC12C[C@H](O)C=CC2=O (stereo partly specified)	1.21 µM	3.06 µM	1.14 µM	2.54 µM	2.23 µM	5.09 µM	1.74 µM	> 45.1 µM	2.21 µM	5.24 µM	0.802 µM	3.17 µM	0.221 µM	0.448 µM	–	–	0.384 µM	1.42 µM	–	–
O=C1OC(c2ccccc2)=N/C1=C/N1CCCC1C(=O)O (stereo unspecified)	–	> 100 µM	–	> 100 µM	–	> 100 µM	–	> 100 µM	–	> 100 µM	–	–	–	> 100 µM	–	> 100 µM	–	–	> 100 µM	–
O=C(/C=C/c1ccccc1)CCc1c(O)c2ccccc2oc1=O	–	> 100 µM	–	> 100 µM	–	> 100 µM	–	> 100 µM	–	> 100 µM	–	> 100 µM	–	> 100 µM	–	–	–	> 100 µM	> 100 µM	–
C=C1C(=O)O[C@H]2[C@H]1CC/C(COC(=O)/C=C/c1c[nH]c3ccccc13)=C\CC[C@@]1(C)O[C@@H]21	0.156 µM	0.369 µM	0.315 µM	1.38 µM	0.332 µM	1.3 µM	0.208 µM	0.412 µM	0.238 µM	0.769 µM	0.175 µM	0.384 µM	–	–	0.172 µM	0.331 µM	0.329 µM	1.52 µM	–	–
C=Cc1cnc([N+](=O)[O-])n1C	–	> 100 µM	–	> 100 µM	–	> 100 µM	–	–	–	> 100 µM	–	> 100 µM	–	> 100 µM	–	–	–	> 100 µM	> 100 µM	–
CC(=O)NS(=O)(=O)c1ccc(-n2nc(-c3ccccc3)cc2C2=CC(=O)C=CC2=O)cc1	> 100 µM	> 100 µM	> 100 µM	> 100 µM	> 100 µM	> 100 µM	> 100 µM	> 100 µM	> 100 µM	> 100 µM	48.9 µM	> 100 µM	–	–	> 100 µM	> 100 µM	> 100 µM	> 100 µM	> 100 µM	> 100 µM
CCN(CC)CCOc1nc2cc(OC)c(OC)cc2c2c1-c1ccc(OC)cc1C2=O	15.7 µM	32.1 µM	21.2 µM	36.4 µM	21.5 µM	36.4 µM	–	–	14.2 µM	28.1 µM	15.7 µM	29.5 µM	14.3 µM	27.6 µM	12.8 µM	25.9 µM	12.3 µM	26.8 µM	2.7 µM	1.27 µM
COc1cc2c3c(c1OC)Oc1ccc(cc1)CC1c4c(cc(OC)c(OC)c4Oc4ccc(cc4)CC3N(C)CC2)CCN1C (stereo unspecified)	–	> 100 µM	–	> 100 µM	–	34.2 µM	–	50.6 µM	–	> 100 µM	–	–	–	28 µM	–	40.3 µM	–	–	34.9 µM	–
N[C@H](C(=O)O)[C@@H](Cl)CC(=O)O	–	> 100 µM	–	> 100 µM	–	> 100 µM	–	> 100 µM	–	> 100 µM	–	–	–	> 100 µM	–	> 100 µM	–	–	> 100 µM	–
CNC(C)Cc1ccc(O)cc1 (stereo unspecified)	–	> 100 µM	–	> 100 µM	–	> 100 µM	–	> 100 µM	–	> 100 µM	–	–	–	> 100 µM	–	> 100 µM	–	–	> 100 µM	–
CCC(=O)OC1=CN2C(=NC(c3ccc(N)cc3)=CC2c2cc(OC)c(OC)c(OC)c2)S1 (stereo unspecified)	1.76 µM	7.37 µM	4.04 µM	17.1 µM	5.54 µM	18.3 µM	5.93 µM	20.4 µM	–	–	4.57 µM	19.4 µM	4.47 µM	15.7 µM	2.3 µM	7.98 µM	6.04 µM	42.9 µM	13 µM	3.45 µM
COc1ccc(/C=C/c2cnc3ccccc3n2)cc1OC	–	> 100 µM	–	> 100 µM	–	> 100 µM	–	> 100 µM	–	> 100 µM	–	> 100 µM	–	–	–	> 100 µM	–	> 100 µM	> 100 µM	–
Cc1cc(S(=O)(=O)Nc2nc3cc(-c4ccsc4)sc3c(=O)n2N)c(S)cc1Cl	> 100 µM	> 100 µM	> 100 µM	> 100 µM	–	–	> 100 µM	> 100 µM	> 100 µM	> 100 µM	–	–	48.4 µM	> 100 µM	> 100 µM	> 100 µM	47.6 µM	> 100 µM	> 100 µM	60.7 µM
